Results taken from the NIST ThermoML archive (doi:10.1016/j.jct.2013.09.039).

Assay: xn = mol fraction of the nth substance listed
Conditions: Liquid, Vibrating tube method

CCOC(=O)OCC [diethyl carbonate] + Cc1ccc(C)cc1
mass density [kg/m3]
Conditions	100 kPa	5000 kPa	10000 kPa	20000 kPa	30000 kPa	40000 kPa
288.15 K, x1 = 0.1014	876.7	880.1	883.7	890.3	896.1	902.1
288.15 K, x1 = 0.1346	879.5	884.1	887.8	894.3	900.3	906.3
288.15 K, x1 = 0.1949	887.5	891.2	894.8	901.3	907.5	913.4
288.15 K, x1 = 0.2767	898.3	900.9	904.5	911.3	917.4	923.5
288.15 K, x1 = 0.386	909.2	913.4	917.2	924.1	930.4	936.6
288.15 K, x1 = 0.4858	920.7	924.7	928.5	935.5	941.9	948.3
288.15 K, x1 = 0.5444	928.4	931.5	935.3	942.5	949.1	955.4
288.15 K, x1 = 0.5923	933.9	937	941	948	954.7	961.2
288.15 K, x1 = 0.6718	942.3	946.4	950.3	957.5	964.3	970.9
288.15 K, x1 = 0.7676	953.2	957.4	961.3	968.7	975.6	982.3
288.15 K, x1 = 0.8313	960.6	964.8	968.9	976.4	983.3	990.1
288.15 K, x1 = 0.9044	968.7	973.1	977.2	984.7	991.9	998.6
298.15 K, x1 = 0.1014	867.6	871.9	875.1	882	888.2	894.3
298.15 K, x1 = 0.1346	871.5	875.8	879	885.9	892.3	898.4
298.15 K, x1 = 0.1949	878.1	882.4	885.8	892.7	899.3	905.3
298.15 K, x1 = 0.2767	887.5	892	895.4	902.5	909.1	915.3
298.15 K, x1 = 0.386	899.8	904.4	907.7	915	921.9	928.2
298.15 K, x1 = 0.4858	910.7	915.2	918.8	926.3	933.2	939.6
298.15 K, x1 = 0.5444	916.8	922	925.6	933.2	940.2	946.6
298.15 K, x1 = 0.5923	922.8	927.4	931.1	938.5	945.8	952.3
298.15 K, x1 = 0.6718	931.7	936.5	940.3	947.8	955.1	961.8
298.15 K, x1 = 0.7676	942.4	947.3	951	959	966.3	973.1
298.15 K, x1 = 0.8313	949.8	954.7	958.4	966.4	973.8	980.8
298.15 K, x1 = 0.9044	957.6	962.7	966.6	974.7	982.2	989.1
308.15 K, x1 = 0.1014	858.7	862.8	866.6	873.8	880.4	886.6
308.15 K, x1 = 0.1346	862.5	866.7	870.4	877.7	884.5	890.8
308.15 K, x1 = 0.1949	868.9	873	876.5	884.2	891.1	897.5
308.15 K, x1 = 0.2767	878.2	882.4	886.5	893.8	900.8	907.3
308.15 K, x1 = 0.386	890.1	894.5	898.5	906.2	913.3	919.9
308.15 K, x1 = 0.4858	900.7	905.2	909.2	917.2	924.5	931.2
308.15 K, x1 = 0.5444	907.2	911.7	916	923.9	931.3	938.1
308.15 K, x1 = 0.5923	912.6	916.9	921.4	929.4	936.8	943.7
308.15 K, x1 = 0.6718	921.3	925.7	930.3	938.4	945.9	952.9
308.15 K, x1 = 0.7676	931.8	936.5	940.9	949.2	957	964.1
308.15 K, x1 = 0.8313	939	943.6	948.1	956.6	964.2	971.6
308.15 K, x1 = 0.9044	946.7	951.5	956.2	964.5	972.6	979.9
